According to US7183112B2, “Uses for anti-malarial therapeutic agents” (APT Pharmaceuticals, LLC, priority 1999, dated 2007):
Several values for one entry are separate records, joined by “and”; a condition that tells them apart may be missing. Identical values can stand only once.

Legend:
[1] = system: Ascaris-sensitized sheep; assay: Airway responsiveness to inhaled carbachol (PC400), Examples 1-2; format: in vivo; conditions: for ORC #2 (24 P-Ag.) (carbachol reactivity, PC 400) / ORC #1 BSLN. (carbachol reactivity, PC 400): Example 2, aerosol 40 mg b.i.d. (2 mg/kg/day); for ORC #2 (24 P-Ag.) (carbachol reactivity, PC 400): 24 hour post-antigen challenge; for ORC #1 BSLN. (carbachol reactivity, PC 400): baseline
Experimental: Dose Response Curves to Inhaled Carbachol: For the carbachol dose response curves, measurements of SRL were repeated immediately after inhalation of buffer and after each administration of 10 breaths of increasing concentrations of carbachol solution (0.25%, 0.5%, 1.0%, 2.0% and 4.0% w/v). To assess airway responsiveness, the cumulative carbachol dose in breath units (BU) that increased SRL 400% over the post-buffer value (i.e. PC400) was calculated from the dose response curve. One breath unit was defined as one breath of a 1% w/v carbachol solution.
(§1) At 3 to 4 days before treatment was begun, baseline airway responsiveness, to aerosol carbachol (i.e., PC400) was determined and a baseline bronchial biopsy performed. […] The animals were treated two times a day for 3 days and then, on the fourth day, at 0.5 hours before antigen challenge and again at 4 hours after challenge. On the antigen-challenge day, SRL was measured and the animals were than treated with HCQ designated compound. SRL was remeasured 0.5 h after treatment (just before challenge) and the animals were then challenged with antigen. SRL was then remeasured immediately after.
(§2) On the fourth day, they received an additional treatment one-half hour prior to antigen challenge.

[2] = system: Ascaris-sensitized sheep; assay: Antigen-induced changes in specific lung resistance (early and late responses), Examples 1-2; format: in vivo; conditions: for Specific resistance, +1 HR % / Specific resistance, +1 HR Srl: 1 h post antigen; for Specific resistance, +2 HRS % / Specific resistance, +2 HRS Srl: 2 h post antigen; for Specific resistance, P-ASC % / Specific resistance, P-ASC Srl: immediately post Ascaris antigen; for Specific resistance, P-pl/dg % (immediate) / Specific resistance, P-pl/dg Srl (immediate): immediately post drug; for Specific resistance, P-pl/dg % (just before Ag) / Specific resistance, P-pl/dg Srl (just before Ag): post drug, just before antigen; for Specific resistance, +3 HRS % / Specific resistance, +3 HRS Srl: 3 h post antigen
Experimental: All procedures were approved by the Mount Sinai Medical Center Animal Research Committee, which is responsible for assuring the humane care and use of experimental animals.
Measurement of Airway Mechanics: The unsedated sheep were restrained in a cart in the prone position with their heads immobilized. After topical anesthesia of the nasal passages with 2% lidocaine solution, a balloon catheter was advanced through one nostril into the lower esophagus. The animals were […] with a cuffed endotracheal tube through the other nostril using a flexible fiberoptic bronchoscope as a guide. […] Pleural pressure was estimated with the esophageal balloon catheter (filled with one ml of air) which was positioned 5–10 cm from the gastroesophageal junction. […] Once the balloon was placed, it was secured so that it remained in position for the duration of the experiment. Lateral pressure in the trachea was-measured with a sidehole catheter (inner dimension, 2.5 mm) advanced through and positioned distal to the tip of the endotracheal tube. Transpulmonary pressure, the difference between tracheal and pleural pressure, was measured with a differential pressure transducer catheter system. For the measurement of pulmonary resistance (RL), the proximal end of the endotracheal tube was connected to a pneumotachograph (Fleisch No. 1; Dyna Sciences, Inc., Blue Bell, Pa.). […] The mean of at least five breaths, free of swallowing artifact, was used to obtain RL in cm H2O/L/s. Immediately after the measurement of RL, thoracic gas volume (Vtg) was measured in a constant-volume body plethysmograph to obtain specific lung resistance (SRL=RL×Vtg) in L×cm H2O/L/s.
Aerosol Delivery Systems: Aerosols of Ascaris suum extract (diluted 20:1 with phosphate buffered saline; 82,000 PNU/ml) were generated using a disposable medical nebulizer (Raindrop^R, Puritan Bennett), which produces an aerosol with a mass median aerodynamic diameter of 3.2 μm (geometric standard deviation, 1.9) as determined by a 7 stage Andersen cascade impactor. The output from the nebulizer was directed into a plastic T-piece, one end of which was connected to the inspiratory port of a Harvard respirator. […] The aerosol was delivered at a tidal volume of 500 ml and a rate of 20 breaths per minute for 20 minutes. Each sheep was challenged with an equivalent dose of antigen (400 breaths) in the control and drug trials. Carbachol aerosols were also generated with this same nebulizer system.
as §1, with “On the antigen-challenge day, SRL was measured and the animals were than treated with HCQ designated compound.” left out
as §2

[3] = Example 1, aerosol 30 mg/animal (0.78 mg/kg) twice a day, Mean
[4] = Example 1, aerosol 30 mg/animal (0.78 mg/kg) twice a day, individual sheep
[5] = Example 2, aerosol 40 mg b.i.d. (2 mg/kg/day)
[6] = Example 2, aerosol 40 mg b.i.d. (2 mg/kg/day), Mean of 2 sheep
[7] = Example 2, aerosol 40 mg b.i.d. (2 mg/kg/day), individual sheep
[8] = Example 2, aerosol 40 mg b.i.d. (2 mg/kg/day), 4 h post antigen, Mean of 2 sheep

In the case of `CCN(CCO)CCCC(C)Nc1ccnc2cc(Cl)ccc12` (centres unmarked) [HCQ, hydroxychloroquine], the “ORC #2 (24 P-Ag.) (carbachol reactivity, PC 400)” value ([1]; Mean of 2 sheep) is reported as 15.82 breath units, the “ORC #2 (24 P-Ag.) (carbachol reactivity, PC 400)” value ([1]; individual sheep) is reported as 15.86 breath units and 15.77 breath units and the “ORC #1 BSLN. (carbachol reactivity, PC 400)” value ([1]; Mean of 2 sheep) is reported as 12.74 breath units. The “ORC #1 BSLN. (carbachol reactivity, PC 400)” value ([1]; individual sheep) was 10.65 breath units and 14.83 breath units, the “effect on bronchial hyperresponsiveness” value ([1]; inhaled (nebulized), twenty-four hours later, summary of animal studies) was “continued effect at blocking” and the “Specific resistance, +1 HR %” value [2, 3] was 38%. The “Specific resistance, +1 HR Srl” value [2, 3] was 1.39 L×cm H2O/L/s, the “Specific resistance, +1 HR %” value [2, 4] was 32% and 43% and 30% and the “Specific resistance, +1 HR Srl” value [2, 4] was 1.35 L×cm H2O/L/s and 1.49 L×cm H2O/L/s. The “Specific resistance, +2 HRS %” value [2, 3] was 42%, the “Specific resistance, +2 HRS Srl” value [2, 3] was 1.44 L×cm H2O/L/s and the “Specific resistance, +2 HRS %” value [2, 4] was 11% and 74% and 4%. The “Specific resistance, +2 HRS Srl” value [2, 4] was 1.13 L×cm H2O/L/s and 1.74 L×cm H2O/L/s and 1.2 L×cm H2O/L/s, the “Specific resistance, P-ASC %” value [2, 3] was 95% and the “Specific resistance, P-ASC Srl” value [2, 3] was 1.97 L×cm H2O/L/s. For the same compound, the “Specific resistance, P-ASC %” value [2, 4] was 140% and 49% and 189%, the “Specific resistance, P-ASC Srl” value [2, 4] was 2.45 L×cm H2O/L/s and 1.49 L×cm H2O/L/s and 3.32 L×cm H2O/L/s and the “Specific resistance, P-pl/dg % (immediate)” value [2, 3] was 10%. The “Specific resistance, P-pl/dg Srl (immediate)” value [2, 3] was 1.11 L×cm H2O/L/s, the “Specific resistance, P-pl/dg % (immediate)” value [2, 4] was 18% and 2% and 19% and the “Specific resistance, P-pl/dg Srl (immediate)” value [2, 4] was 1.20 L×cm H2O/L/s and 1.02 L×cm H2O/L/s and 1.37 L×cm H2O/L/s. The “Specific resistance, P-pl/dg % (just before Ag)” value [2, 3] was 2%, the “Specific resistance, P-pl/dg Srl (just before Ag)” value [2, 3] was 1.03 L×cm H2O/L/s and the “Specific resistance, P-pl/dg % (just before Ag)” value [2, 4] was 9% and −5% and −2%. For the same compound, the “Specific resistance, P-pl/dg Srl (just before Ag)” value [2, 4] was 1.11 L×cm H2O/L/s and 0.95 L×cm H2O/L/s and 1.13 L×cm H2O/L/s, the “effect on acute reactions” value [2, 5] was “not inhibited” and the “effect on late phase asthmatic reactions” value [2, 5] was “virtually completely blocked”. For the same compound, the “Specific resistance, +1 HR %” value [2, 6] was 132%, the “Specific resistance, +1 HR Srl” value [2, 6] was 2.43 L×cm H2O/L/s and the “Specific resistance, +1 HR %” value [2, 7] was 171% and 93%. The “Specific resistance, +1 HR Srl” value [2, 7] was 2.76 L×cm H2O/L/s and 2.10 L×cm H2O/L/s, the “Specific resistance, +2 HRS %” value [2, 6] was 69% and the “Specific resistance, +2 HRS Srl” value [2, 6] was 1.74 L×cm H2O/L/s. For the same compound, the “Specific resistance, +2 HRS %” value [2, 7] was 102% and 36%, the “Specific resistance, +2 HRS Srl” value [2, 7] was 2.06 L×cm H2O/L/s and 1.48 L×cm H2O/L/s and the “Specific resistance, +3 HRS %” value [2, 6] was 50%. For the same compound, the “Specific resistance, +3 HRS Srl” value [2, 6] was 1.58 L×cm H2O/L/s, the “Specific resistance, +3 HRS %” value [2, 7] was 54% and 46% and the “Specific resistance, +3 HRS Srl” value [2, 7] was 1.57 L×cm H2O/L/s and 1.59 L×cm H2O/L/s. For the same compound, the “Specific resistance, +4 HRS %” value [2, 8] was 19% and the “Specific resistance, +4 HRS Srl” value [2, 8] was 1.26 L×cm H2O/L/s.
